Results published in ChEMBL document CHEMBL3797052 (Eur J Med Chem, 2016).

System: not listed separately
Experiment: Cytotoxicity against human SKBR3 cells assessed as growth inhibition at 100 uM after 2 days by MTT assay
Format: functional
Details: SK-BR-3, 48 h, read-out: GI

SMILES	inhibition of growth at 100 µM [%]
CNC(=O)c1cc(Oc2ccc3nc(NC(=O)c4ccc5ncccc5c4)sc3c2)ccn1	29.6

System: not listed separately
Experiment: Antiproliferative activity against human HOP62 cells assessed as cell growth at 10^-5 M after 48 hrs by sulforhodamine B assay
Format: functional
Details: HOP-62, 48 h, read-out: Activity

SMILES	growth at 10 µM [%]
CNC(=O)c1cc(Oc2ccc3nc(NC(=O)c4ccc5ncccc5c4)sc3c2)ccn1	112

System: not listed separately
Experiment: Cytotoxicity against human HCT116 cells assessed as growth inhibition at 100 uM after 2 days by MTT assay
Format: functional
Details: HCT-116, 48 h, read-out: GI

SMILES	inhibition of growth at 100 µM [%]
CNC(=O)c1cc(Oc2ccc3nc(NC(=O)c4ccc5ncccc5c4)sc3c2)ccn1	72.3

System: not listed separately
Experiment: Antiproliferative activity against human UACC62 cells assessed as cell growth at 10^-5 M after 48 hrs by sulforhodamine B assay
Format: functional
Details: UACC-62, 48 h, read-out: Activity

SMILES	growth at 10 µM [%]
CNC(=O)c1cc(Oc2ccc3nc(NC(=O)c4ccc5ncccc5c4)sc3c2)ccn1	94.9

System: not listed separately
Experiment: Antiproliferative activity against human UO31 cells assessed as cell growth at 10^-5 M after 48 hrs by sulforhodamine B assay
Format: functional
Details: UO-31, 48 h, read-out: Activity

SMILES	growth at 10 µM [%]
CNC(=O)c1cc(Oc2ccc3nc(NC(=O)c4ccc5ncccc5c4)sc3c2)ccn1	77

System: not listed separately
Experiment: Antiproliferative activity against human OVCAR8 cells assessed as cell growth at 10^-5 M after 48 hrs by sulforhodamine B assay
Format: functional
Details: OVCAR-8, 48 h, read-out: Activity

SMILES	growth at 10 µM [%]
CNC(=O)c1cc(Oc2ccc3nc(NC(=O)c4ccc5ncccc5c4)sc3c2)ccn1	100

System: MDA-MB-435
Experiment: Antiproliferative activity against human MDA-MB-435 cells assessed as cell growth at 10^-5 M after 48 hrs by sulforhodamine B assay
Format: functional
Details: MDA-MB-435, 48 h, read-out: Activity

SMILES	growth at 10 µM [%]
CNC(=O)c1cc(Oc2ccc3nc(NC(=O)c4ccc5ncccc5c4)sc3c2)ccn1	91.6

System: SK-MEL-28
Experiment: Antiproliferative activity against human SK-MEL-28 cells assessed as cell growth at 10^-5 M after 48 hrs by sulforhodamine B assay
Format: functional
Details: SK-MEL-28, 48 h, read-out: Activity

SMILES	growth at 10 µM [%]
CNC(=O)c1cc(Oc2ccc3nc(NC(=O)c4ccc5ncccc5c4)sc3c2)ccn1	101

System: not listed separately
Experiment: Antiproliferative activity against human BT549 cells assessed as cell growth at 10^-5 M after 48 hrs by sulforhodamine B assay
Format: functional
Details: BT-549, 48 h, read-out: Activity

SMILES	growth at 10 µM [%]
CNC(=O)c1cc(Oc2ccc3nc(NC(=O)c4ccc5ncccc5c4)sc3c2)ccn1	82.3

System: T47D
Experiment: Antiproliferative activity against human T47D cells assessed as cell growth at 10^-5 M after 48 hrs by sulforhodamine B assay
Format: functional
Details: read-out: Activity

SMILES	growth at 10 µM [%]
CNC(=O)c1cc(Oc2ccc3nc(NC(=O)c4ccc5ncccc5c4)sc3c2)ccn1	51.3

System: not listed separately
Experiment: Antiproliferative activity against human Caki1 cells assessed as cell growth at 10^-5 M after 48 hrs by sulforhodamine B assay
Format: functional
Details: CAKI-1, 48 h, read-out: Activity

SMILES	growth at 10 µM [%]
CNC(=O)c1cc(Oc2ccc3nc(NC(=O)c4ccc5ncccc5c4)sc3c2)ccn1	89.9

System: NCI-H522
Experiment: Antiproliferative activity against human NCI-H522 cells assessed as cell growth at 10^-5 M after 48 hrs by sulforhodamine B assay
Format: functional
Details: NCI-H522, 48 h, read-out: Activity

SMILES	growth at 10 µM [%]
CNC(=O)c1cc(Oc2ccc3nc(NC(=O)c4ccc5ncccc5c4)sc3c2)ccn1	54.3

System: not listed separately
Experiment: Antiproliferative activity against human SF539 cells assessed as cell growth at 10^-5 M after 48 hrs by sulforhodamine B assay
Format: functional
Details: SF-539, 48 h, read-out: Activity

SMILES	growth at 10 µM [%]
CNC(=O)c1cc(Oc2ccc3nc(NC(=O)c4ccc5ncccc5c4)sc3c2)ccn1	107

System: not listed separately
Experiment: Antiproliferative activity against human LOXIMVI cells assessed as cell growth at 10^-5 M after 48 hrs by sulforhodamine B assay
Format: functional
Details: LOX IMVI, read-out: Activity

SMILES	growth at 10 µM [%]
CNC(=O)c1cc(Oc2ccc3nc(NC(=O)c4ccc5ncccc5c4)sc3c2)ccn1	99.6

System: not listed separately
Experiment: Antiproliferative activity against human SF268 cells assessed as cell growth at 10^-5 M after 48 hrs by sulforhodamine B assay
Format: functional
Details: SF-268, 48 h, read-out: Activity

SMILES	growth at 10 µM [%]
CNC(=O)c1cc(Oc2ccc3nc(NC(=O)c4ccc5ncccc5c4)sc3c2)ccn1	97.5

System: K562
Experiment: Antiproliferative activity against human K562 cells assessed as cell growth at 10^-5 M after 48 hrs by sulforhodamine B assay
Format: functional
Details: K562, 48 h, read-out: Activity

SMILES	growth at 10 µM [%]
CNC(=O)c1cc(Oc2ccc3nc(NC(=O)c4ccc5ncccc5c4)sc3c2)ccn1	93.7

System: not listed separately
Experiment: Antiproliferative activity against human SW620 cells assessed as cell growth at 10^-5 M after 48 hrs by sulforhodamine B assay
Format: functional
Details: SW-620, 48 h, read-out: Activity

SMILES	growth at 10 µM [%]
CNC(=O)c1cc(Oc2ccc3nc(NC(=O)c4ccc5ncccc5c4)sc3c2)ccn1	112

System: A498
Experiment: Antiproliferative activity against human A498 cells assessed as cell growth at 10^-5 M after 48 hrs by sulforhodamine B assay
Format: functional
Details: A498, 48 h, read-out: Activity

SMILES	growth at 10 µM [%]
CNC(=O)c1cc(Oc2ccc3nc(NC(=O)c4ccc5ncccc5c4)sc3c2)ccn1	88.3

System: Malme-3M
Experiment: Antiproliferative activity against human MALME-3M cells assessed as cell growth at 10^-5 M after 48 hrs by sulforhodamine B assay
Format: functional
Details: read-out: Activity

SMILES	growth at 10 µM [%]
CNC(=O)c1cc(Oc2ccc3nc(NC(=O)c4ccc5ncccc5c4)sc3c2)ccn1	80.5
